One data set concerns Spike RBD. In kind it is cell-based, SARS-CoV-2.
The conditions of data set [1]: cited from earlier work. The text has this: The genetic circuit is based on a split intein and σ factor to which the peptide library is fused. This could be used to screen/select libraries of linear peptides or protein domains for binding to the target. Here, we decided to use modified peptides because they have advantages as pharmaceuticals, including more compact structures that are resistant to proteolysis and permeate the mammalian cell membrane. Modified peptides have been approved for the treatment of cancer, inflammation, and infection and increasing numbers are entering all phases of clinical development for diverse indicatio ...

The target in data set [2] is SARS-CoV-2 Spike RBD (RBD296-531) (Severe acute respiratory syndrome coronavirus 2, UniProt P0DTC2). The data set can be described thus: biochemical. In kind it is binding.

Where a SMILES comes first, the peptide text is derived from it.

Consider VCKYGEWCEIVEI [Pap2c_1], for which, in the data set with Spike RBD, the “fluorescence output (in words)” value is “strong fluorescence output” and the “specificity for Spike RBD as compared to Mdm2*” value is given as 14 fold. For the molecule Enfuvirtide, in data set [1], the “proteolysis (in words)” value is on record as “suffers from rapid proteolysis”. Regarding `CC[C@H](C)[C@H](NC(=O)[C@H]1NC(=O)[C@H](C(C)C)NC(=O)[C@H]([C@@H](C)CC)NC(=O)[C@H](CCC(=O)O)NC(=O)[C@@H](NC(=O)[C@H](Cc2c[nH]c3ccccc23)NC(=O)[C@H](CCC(=O)O)NC(=O)CNC(=O)[C@H](Cc2ccc(O)cc2)NC(=O)[C@H](CCCCN)NC(=O)[C@H](CS)NC(=O)[C@@H](NC(=O)CN)C(C)C)CSC1CC(=O)O)C(=O)O` (stereo partly shown) [AMK-1057] (HELM PEPTIDE1{G.V.C.K.Y.G.E.W.C.E.I.V.[O=C(O)CC([C@H](N[*:1])C(=O)[*:2])[*:3]].I}$PEPTIDE1,PEPTIDE1,9:R3-13:R3$$$V2.0), binding in data set [2] was characterised by a dissociation constant (Kd) of 990 ± 5 nM.

Source of the values: paper PMC8566587, “Selection for constrained peptides that bind to a single target protein” (Nature Communications, 2021).
